# According to PubChem BioAssay AID449762 (Southern Research Specialized Biocontainment Screening …, 2010):
# pIC50: −log10 of the molar value. Results filed as inconclusive are left out.
# Tested on: M. tuberculosis H37Rv growth inhibition, 7H9 media
# Assay: M. tuberculosis growth inhibition, HTS (AID 449762);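 note: bacterial growth assessed after seven days of incubation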
# Conditions: for IC90: measured here: IC90 growth inhibition
SMILES,pIC50,IC90
O=[N+]([O-])c1cc([N+](=O)[O-])c2cc3ccccc3nc2c1,> 6.70,0.81 µM
Cc1ccc(-c2noc(C3CCCN(C(=O)c4ccc(C(C)(C)C)cc4)C3)n2)o1 (centres undefined),4.32,55.2 µM
O=c1cc2[nH]c3ccccc3c(=O)n2nc1-c1ccccc1,5.16,18 µM
O=C(Oc1ccccc1-c1nnco1)c1ccc(Cl)cc1,4.99,44.7 µM
OCC(O)/C=N/Nc1nc(Nc2ccccc2)nc(Nc2ccccc2)n1 (centres undefined),5.02,12.5 µM
c1ccc(CSc2ccc(-c3ccccn3)nn2)cc1,4.63,26.9 µM
Oc1ccccc1-c1nnc(COc2ccccc2)o1,5.12,34.7 µM
COc1ccc(C(=O)/C=C/Sc2nc3ccccc3o2)cc1,4.42,> 100 µM
C=CCc1cc(C)ccc1OCCCC(C(=O)OCC)C(=O)OCC,5.01,21.4 µM
CC1(O)CC(c2ccc(Cl)cc2)=NN1C(=O)c1ccc([N+](=O)[O-])cc1 (centres undefined),4.76,> 100 µM
Cc1ccc(NC(=O)C2C3/C=C\CCCCC32)cc1C (centres undefined),5.54,3.29 µM
COc1ccc(C(CCNCc2ccc(OC(C)C)cc2)C(C)C)cc1 (centres undefined),4.63,26.9 µM
On1onc2c3cc(-c4ccccc4)nc3ccc21,> 6.70,< 0.2 µM
CC1Cc2ccccc2N1C(=S)NC(=O)c1ccc(Cl)cc1Cl (centres undefined),5.15,> 100 µM
CCN1C(=NCCc2ccc(Br)cc2)N[C@@H](c2ccccc2)[C@H](C(=O)OC)[C@H]1C,4.78,22.1 µM
Cc1cc(/C=N\NC(=O)c2cccs2)c(C)n1-c1ccc2ncccc2c1,4.92,31.7 µM
Cc1ccc(NC(=O)c2ccc(CSc3nnc(C)s3)cc2)c(C)c1,4.76,> 25 µM
C=CCn1c(O)c(N=Nc2ccccc2O)c2ccccc21,5.21,24.3 µM
CC(C)OC(=O)c1ccc(COC(=O)c2cnccn2)cc1,5.11,> 100 µM

SMILES,pIC50,IC90
CC(/C=C/C=C/c1ccccc1)=N\NC(=O)c1cccnc1,4.04,> 100 µM
CCOC(=O)CSc1nnc(SCCN2C(=O)c3ccccc3C2=O)s1,5.37,30 µM
CCc1ccc(/C(C)=N/Nc2cc(Cl)nc(C)n2)cc1,4.38,99 µM
COc1cc2c(cc1OC)CN(CCC(=O)c1ccc(Br)cc1)CC2,4.92,13.7 µM
N#Cc1cccc2c1-c1ccccc1/C2=N/NC(N)=O,4.03,> 100 µM
CC(=O)c1cccc(NC(=S)NC2CCCCCCC2)c1,4.63,26.2 µM
CC(/C=N/n1c(C2CCCCC2)n[nH]c1=S)=C\c1ccccc1,4.31,54.3 µM
COc1cccc2sc(Nc3nnc(-c4cccs4)o3)nc12,4.62,27.1 µM
Cc1nonc1NC(=O)CSc1ccc(-c2ccccc2)nn1,4.68,52.9 µM
O=C(CSC1=NC(=O)C(c2ccccc2)C(=O)N1)Nc1ccccc1Cl (centres undefined),5.73,6.58 µM
Cc1ccc(C2=NN(C)c3nc4ccccc4n3C2)cc1,4.69,78.3 µM
O=C(/C=C/c1ccco1)Nc1cccc(-c2nc3ccccc3[nH]2)c1,4.10,> 100 µM
CC1(C)c2cc(Cl)ccc2-n2c1cc(O)c(-c1ccccc1)c2=O,5.35,10.8 µM
Cc1ccc(O)c(C(=O)CC(=O)c2ccccc2Cl)c1,4.97,40.1 µM
CCOC(=O)c1cnc(Nc2nc3ccccc3o2)nc1CSC(=S)N(CC)CC,4.69,25.4 µM
CCOC(=O)C1CCN(c2cc3c(cc2NC(=O)c2ccccc2Cl)n(C)c(=O)n3C)CC1,4.33,53.9 µM
COc1cccc(NC(=O)CNC(=O)Cn2cnc3sc4c(c3c2=O)CCCC4)c1,4.44,> 100 µM
COc1ccc(C2CC2/C(C)=N/OC(=O)c2ccc(F)cc2)cc1 (centres undefined),4.86,51.6 µM
